Measurements published in patent publication US20030225273A1, “Thiopyrimidine and isothiazolopyrimidine kinase inhibitors” (priority 2002, published 2003).

melting point | Structure (SMILES)
155 to 158 °C | NC(=O)N(c1ccc(-c2c(CCO)sc3ncnc(N)c23)cc1)c1cccc(C(F)(F)F)c1 [Example 139, N-{4-[4-amino-6-(2-hydroxyethyl)thieno[2,3-d]pyrimidin-5-yl]phenyl}-N-[3-(trifluoromethyl)phenyl]urea]
169 to 173 °C | Cc1ccc(NC(=O)Nc2ccc(-c3c(Cc4ccccc4)sc4ncnc(N)c34)cc2)cc1 [Example 9, N-[4-(4-amino-6-benzylthieno[2,3-d]pyrimidin-5-yl)phenyl]-N′-(4-methylphenyl)urea]
217 to 219 °C | COCCc1sc2ncnc(N)c2c1-c1ccc(N(C(N)=O)c2ccccc2C)cc1 [Example 137, N-{4-[4-amino-6-(2-methoxyethyl)thieno[2,3-d]pyrimidin-5-yl]phenyl}-N-(2-methylphenyl)urea]
209 to 211 °C | COCCc1sc2ncnc(N)c2c1-c1ccc(NC(=O)Nc2cc(C(F)(F)F)ccc2F)cc1 [Example 140, N-{4-[4-amino-6-(2-methoxyethyl)thieno[2,3-d]pyrimidin-5-yl]phenyl}-N′-[2-fluoro-5-(trifluoromethyl)phenyl]urea]
162 to 166 °C | Nc1ncnc2sc(Cc3ccncc3)c(-c3ccc(NC(=O)Nc4cccc(C(F)(F)F)c4)cc3)c12 [Example 142, N-{4-[4-amino-6-(pyridin-4-ylmethyl)thieno[2,3-d]pyrimidin-5-yl]phenyl}-N′-[3-(trifluoromethyl)phenyl]urea]
200 to 202 °C | COCCc1sc2ncnc(N)c2c1-c1ccc(NC(=O)Cc2cccc(C)c2)cc1 [Example 112, N-{4-[4-amino-6-(2-methoxyethyl)thieno[2,3-d]pyrimidin-5-yl]phenyl}-2-(3-methylphenyl)acetamide]
169 to 172 °C | Nc1ncnc2sc(Cc3cccnc3)c(-c3ccc(NC(=O)Nc4cccc(Cl)c4)cc3)c12 [Example 117, N-{4-[4-amino-6-(pyridin-3-ylmethyl)thieno[2,3-d]pyrimidin-5-yl]phenyl}-N′-(3-chlorophenyl)urea]
200 to 202 °C | COCCc1sc2ncnc(N)c2c1-c1ccc(NC(=O)c2ccccc2)cc1 [Example 113, N-{4-[4-amino-6-(2-methoxyethyl)thieno[2,3-d]pyrimidin-5-yl]phenyl}benzamide]
206 to 208 °C | COCCc1sc2ncnc(N)c2c1-c1ccc(NS(=O)(=O)c2ccccc2)cc1 [Example 111, N-{4-[4-amino-6-(2-methoxyethyl)thieno[2,3-d]pyrimidin-5-yl]phenyl}benzenesulfonamide]
142 to 144 °C | Cc1cccc(CC(=O)Nc2ccc(-c3c(CCO)sc4ncnc(N)c34)cc2)c1 [Example 350, N-{4-[4-amino-6-(2-hydroxyethyl)thieno[2,3-d]pyrimidin-5-yl]phenyl}-2-(3-methylphenyl)acetamide]
159 to 162 °C | Cc1ccccc1NC(=O)Nc1ccc(-c2c(CCO)sc3ncnc(N)c23)cc1 [Example 107, N-{4-[4-amino-6-(2-hydroxyethyl)thieno[2,3-d]pyrimidin-5-yl]phenyl}-N′-(2-methylphenyl)urea]
> 250 °C | CC(C)c1sc2ncnc(N)c2c1-c1ccc(NC(=O)c2ccccc2)cc1 [Example 8, N-[4-(4-amino-6-isopropylthieno[2,3-d]pyrimidin-5-yl)phenyl]benzamide]
100 to 105 °C | Nc1ncnc2sc(Cc3ccccc3)c(-c3ccc(NS(=O)(=O)c4ccccc4)cc3)c12 [Example 13, N-[4-(4-amino-6-benzylthieno[2,3-d]pyrimidin-5-yl)phenyl]benzenesulfonamide]
128 to 132 °C | COCCc1sc2ncnc(N)c2c1-c1ccc(NC(=O)Nc2ccc(C)cc2)cc1 [Example 110, N-{4-[4-amino-6-(2-methoxyethyl)thieno[2,3-d]pyrimidin-5-yl]phenyl}-N′-(4-methylphenyl)urea]
